Consider ten compounds from US10159685B2, “Vascular calcification” (Cambridge Enterprise Limited, priority 2016, dated 2018).

Holding throughout (assay type): cell-based
Series [1] has as its system human vascular smooth muscle cells (hVSMCs). Briefly: o-Cresolphthalein Ca2+ assay, hVSMC Ca/P calcification model (Examples 7-9). The conditions noted are these: for Extracellular matrix calcification (summary statement): bovine cell and human cell in vitro vascular calcification model; for Normalised calcium levels (mass of calcium per mass of protein, FIG. 22) / Inhibition of calcification, normalised results (FIG. 27): 8 days; for Normalised calcium levels (mass of calcium per mass of protein, FIG. 22): 3 μM; for Inhibition of calcification, normalised results (FIG. 27): concentrations between 0.05 μM and 3 μM. The procedure: Primary hVSMCs were cultured in M199 media containing FBS (M199/5% FBS). They were plated at a known cell density, allowed to grow for 24 hours and then treated with control (DMSO only) or calcification media (DMSO containing 2.7 mM Calcium+2.5 mM phosphate)+/−inhibitors. After 6 days, calcification was assessed using the o-Cresolphthalein assay for quantification of Ca^2+ deposition and a BioRad protein assay for protein content.
Medium+/−inhibitors was exchanged every 2-3 days.
Primary hVSMCs were cultured in M199 media containing FBS (M199/5% FBS). They were plated at a known cell density, allowed to grow for 24 hours and then treated with control (DMSO only) or calcification media (DMSO containing 2.7 mM Calcium+2.5 mM phosphate)+/−inhibitors. After 8 days, calcification was assessed using o-Cresolphthalein assay for quantification of Ca^2+ deposition and a BioRad protein assay for protein content.
All of the compounds tested were used at a concentration of 3 μM. Medium+/−inhibitors was exchanged every 2-3 days.
Primary hVSMCs were cultured in M199 media containing FBS (M199/5% FBS). They were plated at a known cell density, allowed to grow for 24 hours and then treated with control (DMSO only) or calcification media (DMSO containing 2.7 mM Calcium+2.5 mM phosphate)+/−compounds. After 8 days, calcification was assessed using o-Cresolphthalein assay for quantification of Ca^2+ deposition and a BioRad protein assay for protein content.
These concentrations were chosen to mimic the systemic concentrations of these drugs following patient dosing according to the dose schedule in the prescribing information for each drug. Medium+/−inhibitors was exchanged every 2-3 days.

Series [2] relates to human monocyte-macrophages (HMMs). Description: MTT toxicity assay, HMMs, seven days (Example 3). As to conditions: 7 days; for Cell viability by MTT, percent of control: mean of three experiments; for Toxicity to HMMs (in words): at a concentration of 100 μM. Background: Tetrazolium dyes change colour on reduction, which living cells bring about.
Experimental: A similar set of toxicity experiments was performed with human monocyte-macrophages (HMMs).
Series [3] relates to bovine vascular smooth muscle cells (bVSMCs). The conditions noted are these: 7 days; for Cell viability of bVSMCs after seven days (MTT signal, relative to control): mean of three experiments. The protocol:
The toxicity of the identified compounds to bovine VSMCs was measured using the MTT assay, which measures the activity of dehydrogenase enzymes of live cells. This assay can pick up both cell death and proliferation.
Bovine VSMCs were seeded in 96 well plates and cultured in M199/20% FCS for 1 day. Then, the cells were incubated with inhibitor concentrations from 0.5 to 100 μM (in M199 medium+5% FBS). The cells were incubated with the inhibitors for 7 days; every 2-3 days the medium −/+inhibitors was exchanged. Then, the MTT assay was performed. The stock vehicle DMSO was tested at corresponding concentrations to the inhibitors at 0.1% DMSO or less.

The test system is the same in series [4]. Briefly: o-Cresolphthalein Ca2+ assay, bVSMC GAD calcification model (Examples 4 and 5). As to conditions: GAD-treated bVSMCs, 10 μM, 7 d. The procedure: For the bVSMCs a GAD medium (10 mM β-glycerophosphate/0.1 mM L-ascorbic acid-2-phosphate/10 nM dexamethasone) model was used to induce mineralization in bVSMCs. Accordingly, cells were seeded in tissue culture plates using M199/20% FCS culture medium and cultured overnight. The next day, cells were treated either with medium only (M199/5% FBS)+/−inhibitors, or with the GAD-medium (10 mM β-glycerophosphate/0.1 mM L-ascorbic acid-2-phosphate/[…] dexamethasone)+/−inhibitors.
Medium+/−inhibitors was exchanged every 2-3 days. […]
The o-Cresolphthalein assay is a spectrophotometric method for measuring Ca^2+-concentrations in cell/tissue lysates. Following the calcification experiments, cells are briefly washed to remove medium and 100 […]1 of 0.1 N HCl is added to each well to dissolve any mineral deposits. Then, the Ca^2+-concentration of the samples is measured spectrophotometrically (at 570 nm) in the o-cresolphthalein assay with the help of a CaCl2 standard curve in a concentration range of ˜0.02-270 µg Ca^2+/ml.
The commercial BioRad DC protein assay is based on the Lowry method, aka reaction of proteins with a copper-tartrate complex and subsequent reaction with Folin's reagent. Following the calcification experiment, cells are briefly washed to remove medium and 100 µl of solubilisation solution (0.1 M NaOH/1% SDS/DIW) is added to each well to lyse the cells. The protein concentrations of the lysates are subsequently determined in the BioRad DC assay as per supplier's instructions using BSA (bovine serum albumin) as standard.
The in vitro model is the same as the model used in example 4; bovine vascular smooth muscle cells (bVSMCs) cultured so that they produce extracellular matrix, with the addition of the GAD medium (10 mM β-glycerophosphate/0.1 mM L-ascorbic acid-2-phosphate/10 nM dexamethasone).
As above, cells were treated either with medium only (“no-additions”; NA)+/−inhibitors, or with the GAD-medium+/−inhibitors. The inhibitors used were PJ34 and minocyclin (MC) at 10 μM, 1 μM and 0.1 μM.
The methodology was the same as that described in example 4.

The mark [5] stands for this setting: hVSMCs, 6 days, PJ34 10 μM, minocycline and cilostazol 0.5, 1 and 2 μM.
Setting [6] is: at the concentrations tested (0.5 to 100 μM).

SMILES strings stand for the structures. Where two headings read alike, the source gives them in different places. Marks after values point to notes of the source that are not given here.

In the case of `C[C@]1(c2nc3c(C(N)=O)cccc3[nH]2)CCCN1` [veliparib], the “Extracellular matrix calcification (summary statement)” value (“Extracellular matrix calcification” below) in series [1] is given as “significantly reduce extracellular matrix calcification”. Also, in series [1] (hVSMCs), the “Normalised calcium levels (mass of calcium per mass of protein, FIG. 22)” value is on record as “particularly effective”; the “Inhibition of calcification, normalised results (FIG. 27)” value is “inhibit calcification significantly and repeatedly”.

With `O=C1CCc2cc(OCCCCc3nnnn3C3CCCCC3)ccc2N1` [cilostazol], the “Cell viability by MTT, percent of control” value is 105.05 in series [2] (0.5 uM); 103.62 in series [2] (1 uM); 75.63 in series [2] (2 uM); 90.74 in series [2] (5 uM); 79.83 in series [2] (10 uM); 81.50 in series [2] (20 uM). For the same compound, the “Cell viability by MTT, percent of control” value in series [2] (50 uM) is 73.73; in series [2] (100 uM), 77.06. Moreover, the “Toxicity to HMMs (in words)” value in series [2] is given as “relatively innocuous”. Besides, the “Cell viability of bVSMCs after seven days (MTT signal, relative to control)” value is recorded as 98.22 in series [3] (0.5 uM); 93.93 in series [3] (1 uM); 86.31* in series [3] (2 uM); 86.87* in series [3] (5 uM); 88.38* in series [3] (10 uM); 90.45* in series [3] (20 uM). For the same compound, the figures for the “Cell viability of bVSMCs after seven days (MTT signal, relative to control)” value in series [3] (50 uM) and in series [3] (100 uM) were 84.93* and 65.21*, respectively. For the same compound, in series [3] (at 50 and 100 μM), the “Toxicity to bVSMCs (MTT assay, in words)” value is reported as “toxic”. The “Extracellular matrix calcification” value in series [1] is “significantly reduce extracellular matrix calcification”. In addition, the “Calcium levels (mass of calcium, FIG. 17) versus DMSO Ca+P positive control” value in series [1] (setting [5]) is reported as “reduce the calcium levels”. For the same compound, the “Normalised calcium levels (mass of calcium per mass of protein, FIG. 19)” value in series [1] (setting [5]) is “lower calcium levels significantly”. The “Normalised calcium levels (mass of calcium per mass of protein, FIG. 22)” value in series [1] (hVSMCs) is “particularly effective”. In addition, the “Inhibition of calcification, normalised results (FIG. 27)” value in series [1] (hVSMCs) was “inhibit calcification significantly and repeatedly”. In addition, in series [4], the “Calcium levels (mass of calcium, FIG. 7B) compared to no inhibitors” value was “no effect”. Besides, in series [4], the “Normalised calcium levels (mass of calcium per mass of protein, FIG. 9B)” value is listed as “does not appear to have an effect”.

For the compound `O=C1NCCc2c(OCCCCN3CCCCC3)cccc21` [DPQ, 3,4-dihydro-5-[4-(1-piperidinyl)butoxyl]-1(2H)-isoquinolinone], the “Cell viability by MTT, percent of control” value came out at 106.61 in series [2] (0.5 uM); 88.68 in series [2] (1 uM); 89.59 in series [2] (2 uM); 95.11 in series [2] (5 uM); 91.82 in series [2] (10 uM); 91.99 in series [2] (20 uM). For the same compound, the “Cell viability by MTT, percent of control” value in series [2] (50 uM) came to 86.74; in series [2] (100 uM), 90.94. Besides, the “Toxicity to HMMs (in words)” value in series [2] is “relatively innocuous”. Moreover, the “Cell viability of bVSMCs after seven days (MTT signal, relative to control)” value in series [3] (0.5 uM) is reported as 100.30; in series [3] (1 uM), 101.78; in series [3] (2 uM), 92.11*; in series [3] (5 uM) it was 94.96; in series [3] (10 uM), 92.58*; in series [3] (20 uM), 94.24*. The results for the “Cell viability of bVSMCs after seven days (MTT signal, relative to control)” value in series [3] (50 uM) and in series [3] (100 uM) were 89.46* and 89.87*, respectively. In series [3] (setting [6]), the “Toxicity to bVSMCs (MTT assay, in words)” value was “virtually non-toxic”.

Consider `O=C(c1cc(Cc2n[nH]c(=O)c3ccccc23)ccc1F)N1CCN(C(=O)C2CC2)CC1` [olaparib], for which, in series [1], the “Extracellular matrix calcification” value is given as “significantly reduce extracellular matrix calcification”.

As for `NC(=O)c1cccc2cn(-c3ccc([C@@H]4CCCNC4)cc3)nc12` [niraparib], the “Extracellular matrix calcification” value in series [1] is “significantly reduce extracellular matrix calcification”. Also, the “Normalised calcium levels (mass of calcium per mass of protein, FIG. 22)” value in series [1] (hVSMCs) is listed as “particularly effective”.

As for `Cn1ncnc1[C@H]1c2n[nH]c(=O)c3cc(F)cc(c23)N[C@@H]1c1ccc(F)cc1` [talazoparib], the “Extracellular matrix calcification” value in series [1] was “significantly reduce extracellular matrix calcification”.

For the compound `CCCCc1nc(Cl)c(CO)n1Cc1ccc(-c2ccccc2-c2nn[nH]n2)cc1` [losartan], the “Inhibition of calcification, normalised results (FIG. 27)” value in series [1] (hVSMCs) was “do not inhibit medial vascular calcification”.

For the compound `CNCc1ccc(-c2[nH]c3cc(F)cc4c3c2CCNC4=O)cc1` [rucaparib], the “Extracellular matrix calcification” value in series [1] is given as “significantly reduce extracellular matrix calcification”. Besides, the “Normalised calcium levels (mass of calcium per mass of protein, FIG. 22)” value in series [1] (hVSMCs) is “particularly effective”.

Regarding `COc1ccc([C@@H]2Sc3ccccc3N(CCN(C)C)C(=O)[C@@H]2OC(C)=O)cc1` [Diltiazem, diltiazem], the “Cell viability by MTT, percent of control” value in series [2] (0.5 uM) stood at 97.10; in series [2] (1 uM) it was 104.94; in series [2] (2 uM), 99.61; in series [2] (5 uM), 91.09; in series [2] (10 uM), 92.45; in series [2] (20 uM) it was 100.42. Also, the figures for the “Cell viability by MTT, percent of control” value in series [2] (50 uM) and in series [2] (100 uM) were 92.16 and 53.65*, respectively. Besides, the “Toxicity to HMMs (in words)” value in series [2] is “most toxic”. The “Cell viability of bVSMCs after seven days (MTT signal, relative to control)” value in series [3] (0.5 uM) is recorded as 98.78; in series [3] (1 uM), 96.07; in series [3] (2 uM) it was 89.48*; in series [3] (5 uM) it was 91.88*; in series [3] (10 uM), 94.54; in series [3] (20 uM) it was 113.60*. The results for the “Cell viability of bVSMCs after seven days (MTT signal, relative to control)” value in series [3] (50 uM) and in series [3] (100 uM) were 143.28* and 119.64*, respectively. The “Stimulatory effect on bVSMCs (MTT assay)” value in series [3] (at 20 μM and above) was “stimulatory effect”. Also, in series [3] (setting [6]), the “Toxicity to bVSMCs (MTT assay, in words)” value is recorded as “non-toxic”. Also, in series [4], the “Calcium levels (mass of calcium, FIG. 7B) compared to no inhibitors” value is reported as “lower calcium levels”. Further, the “Normalised calcium levels (mass of calcium per mass of protein, FIG. 9B)” value in series [4] is reported as “slightly lower calcium levels”.

Regarding `CC(C)c1c(C(=O)Nc2ccccc2)c(-c2ccccc2)c(-c2ccc(F)cc2)n1CC[C@@H](O)C[C@@H](O)CC(=O)O` [atorvastatin], the “Inhibition of calcification, normalised results (FIG. 27)” value in series [1] (hVSMCs) is “do not inhibit medial vascular calcification”.
